In the NIST ThermoML archive (doi:10.1016/j.jct.2006.08.009):

Test: mn = molality of the nth substance listed, in mol/kg
Conditions: 350 kPa, Liquid; for apparent molar heat capacity: Extra sensitive DSC

O[C@H]1[C@H](O)[C@@H](O)[C@H](O)[C@@H](O)[C@H]1O [cis-1,2,3,5-trans-4,6-cyclohexanehexol] + O
Conditions	apparent molar heat capacity [J/K/mol]	mass density [kg/m3]
278.15 K, m1 = 0.02	255	1001.54
278.15 K, m1 = 0.05	253	1004.04
278.15 K, m1 = 0.0814	256.7	–
278.15 K, m1 = 0.1	267.7	–
278.15 K, m1 = 0.1028	257.3	–
278.15 K, m1 = 0.248	263.1	1020.11
278.15 K, m1 = 0.3973	262.1	1031.74
278.15 K, m1 = 0.4994	269.8	1039.85
283.15 K, m1 = 0.02	287	1001.49
283.15 K, m1 = 0.05	285	1003.92
283.15 K, m1 = 0.0814	292.1	–
283.15 K, m1 = 0.1	295.6	–
283.15 K, m1 = 0.1028	284.4	–
283.15 K, m1 = 0.248	290.5	1019.58
283.15 K, m1 = 0.3973	289	1030.95
283.15 K, m1 = 0.4994	295.3	1038.94
288.15 K, m1 = 0.02	312	1000.86
288.15 K, m1 = 0.05	312	1003.27
288.15 K, m1 = 0.0814	323	–
288.15 K, m1 = 0.1	319.7	–
288.15 K, m1 = 0.1028	306	–
288.15 K, m1 = 0.248	312.7	1018.73
288.15 K, m1 = 0.3973	311.2	1029.97
288.15 K, m1 = 0.4994	316.4	1037.9
293.15 K, m1 = 0.02	332	–
293.15 K, m1 = 0.05	332	–
293.15 K, m1 = 0.0814	342.6	–
293.15 K, m1 = 0.1	339	–
293.15 K, m1 = 0.1028	326	–
293.15 K, m1 = 0.248	331.5	–
293.15 K, m1 = 0.3973	329.9	–
293.15 K, m1 = 0.4994	334.1	–
298.15 K, m1 = 0.02	347	998.75
298.15 K, m1 = 0.05	348	1001.13
298.15 K, m1 = 0.0814	358.6	1003.66
298.15 K, m1 = 0.1	354.4	–
298.15 K, m1 = 0.1028	343.7	–
298.15 K, m1 = 0.248	347.5	1016.29
298.15 K, m1 = 0.3973	345.6	1027.32
298.15 K, m1 = 0.4994	349.1	1035.14
303.15 K, m1 = 0.02	362	–
303.15 K, m1 = 0.05	362.7	–
303.15 K, m1 = 0.0814	371.2	–
303.15 K, m1 = 0.1	367.4	–
303.15 K, m1 = 0.1028	358.9	–
303.15 K, m1 = 0.248	361.3	–
303.15 K, m1 = 0.3973	359	–
303.15 K, m1 = 0.4994	361.9	–
308.15 K, m1 = 0.02	374	995.69
308.15 K, m1 = 0.05	374.4	998.05
308.15 K, m1 = 0.0814	381.2	1000.51
308.15 K, m1 = 0.1	378.5	1001.45
308.15 K, m1 = 0.1028	371.6	1001.99
308.15 K, m1 = 0.248	373.2	1012.97
308.15 K, m1 = 0.3973	370.4	1023.83
308.15 K, m1 = 0.4994	373	1031.55
313.15 K, m1 = 0.02	386	–
313.15 K, m1 = 0.05	385.5	–
313.15 K, m1 = 0.0814	390.4	–
313.15 K, m1 = 0.1	388.5	–
313.15 K, m1 = 0.1028	382.8	–
313.15 K, m1 = 0.248	383.6	–
313.15 K, m1 = 0.3973	380.5	–
313.15 K, m1 = 0.4994	382.7	–
318.15 K, m1 = 0.02	395	991.86
318.15 K, m1 = 0.05	394.7	994.19
318.15 K, m1 = 0.0814	398.6	996.61
318.15 K, m1 = 0.1	397.3	997.52
318.15 K, m1 = 0.1028	392.5	998.07
318.15 K, m1 = 0.248	392.7	1008.92
318.15 K, m1 = 0.3973	389.4	1019.64
318.15 K, m1 = 0.4994	391.3	1027.27
323.15 K, m1 = 0.02	403	–
323.15 K, m1 = 0.05	402.6	–
323.15 K, m1 = 0.0814	405.9	–
323.15 K, m1 = 0.1	405	–
323.15 K, m1 = 0.1028	401	–
323.15 K, m1 = 0.248	400.7	–
323.15 K, m1 = 0.3973	397.3	–
323.15 K, m1 = 0.4994	398.9	–
328.15 K, m1 = 0.02	410	987.32
328.15 K, m1 = 0.05	409.6	989.63
328.15 K, m1 = 0.0814	412.6	992.01
328.15 K, m1 = 0.1	411.7	992.93
328.15 K, m1 = 0.1028	408.3	993.47
328.15 K, m1 = 0.248	407.8	1004.2
328.15 K, m1 = 0.3973	404.3	1014.83
328.15 K, m1 = 0.4994	405.6	1022.36
333.15 K, m1 = 0.02	416	–
333.15 K, m1 = 0.05	415.7	–
333.15 K, m1 = 0.0814	418.7	–
333.15 K, m1 = 0.1	417.8	–
333.15 K, m1 = 0.1028	414.9	–
333.15 K, m1 = 0.248	414.1	–
333.15 K, m1 = 0.3973	410.5	–
333.15 K, m1 = 0.4994	411.6	–
338.15 K, m1 = 0.02	421	982.18
338.15 K, m1 = 0.05	421.5	984.47
338.15 K, m1 = 0.0814	424.1	986.82
338.15 K, m1 = 0.1	423.2	987.73
338.15 K, m1 = 0.1028	420.6	988.27
338.15 K, m1 = 0.248	419.6	998.91
338.15 K, m1 = 0.3973	416.1	1009.45
338.15 K, m1 = 0.4994	416.9	1016.94
343.15 K, m1 = 0.02	427	–
343.15 K, m1 = 0.05	426.7	–
343.15 K, m1 = 0.0814	429	–
343.15 K, m1 = 0.1	427.9	–
343.15 K, m1 = 0.1028	425.9	–
343.15 K, m1 = 0.248	424.6	–
343.15 K, m1 = 0.3973	421	–
343.15 K, m1 = 0.4994	421.6	–
348.15 K, m1 = 0.02	430.7	976.46
348.15 K, m1 = 0.05	431.2	978.72
348.15 K, m1 = 0.0814	433.3	981.07
348.15 K, m1 = 0.1	431.9	981.98
348.15 K, m1 = 0.1028	430.3	982.51
348.15 K, m1 = 0.248	428.9	993.1
348.15 K, m1 = 0.3973	425.2	1003.55
348.15 K, m1 = 0.4994	425.8	1010.99
353.15 K, m1 = 0.02	435.4	–
353.15 K, m1 = 0.05	435.4	–
353.15 K, m1 = 0.0814	437.2	–
353.15 K, m1 = 0.1	435.3	–
353.15 K, m1 = 0.1028	434.1	–
353.15 K, m1 = 0.248	432.5	–
353.15 K, m1 = 0.3973	428.9	–
353.15 K, m1 = 0.4994	429.3	–
358.15 K, m1 = 0.02	439.4	970.24
358.15 K, m1 = 0.05	439	972.5
358.15 K, m1 = 0.0814	440.6	974.84
358.15 K, m1 = 0.1	438.3	975.72
358.15 K, m1 = 0.1028	437.2	976.24
358.15 K, m1 = 0.248	435.7	986.78
358.15 K, m1 = 0.3973	432	997.2
358.15 K, m1 = 0.4994	432.4	–
363.15 K, m1 = 0.02	442.2	–
363.15 K, m1 = 0.05	441.7	–
363.15 K, m1 = 0.0814	443.4	–
363.15 K, m1 = 0.1	440.5	–
363.15 K, m1 = 0.1028	439.4	–
363.15 K, m1 = 0.248	438.2	–
363.15 K, m1 = 0.3973	434.6	–
363.15 K, m1 = 0.4994	434.8	–
368.15 K, m1 = 0.02	–	963.51
368.15 K, m1 = 0.05	–	965.76
368.15 K, m1 = 0.0814	–	968.11
368.15 K, m1 = 0.1	–	969.08
368.15 K, m1 = 0.1028	–	969.48
368.15 K, m1 = 0.248	–	980
368.15 K, m1 = 0.3973	–	990.36
368.15 K, m1 = 0.4994	–	997.73
